From patent US20100261719A1, “CHEMICAL COMPOUNDS” (priority 2007, published 2010)
Read-outs that look alike come from different tables or passages of the source.

Target: Escherichia coli DNA gyrase A/B tetramer (Escherichia coli, UniProt P0AES4+P0AES6)
Test: DNA gyrase supercoiling activity fluorescence polarisation assay
Type: biochemical
Method in brief: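 5 nM gyrase supercoils 130 μg/ml relaxed triplex-sequence plasmid with 0.3 mM ATP in Tris pH 7.5/KCl/MgCl2/spermidine buffer, 0.8% DMSO, ~30 min at ambient temperature, 5-10 compound concentrations. Quenched with 40 nM BODIPY-FL triplex probe at pH 3.5; anisotropy read after 60 min (485/535 nm). IC50 by nonlinear regression against no-compound and 5 uM ciprofloxacin controls.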

Sequence of Escherichia coli DNA gyrase A/B tetramer (P0AES4 whole entry, one chain of several): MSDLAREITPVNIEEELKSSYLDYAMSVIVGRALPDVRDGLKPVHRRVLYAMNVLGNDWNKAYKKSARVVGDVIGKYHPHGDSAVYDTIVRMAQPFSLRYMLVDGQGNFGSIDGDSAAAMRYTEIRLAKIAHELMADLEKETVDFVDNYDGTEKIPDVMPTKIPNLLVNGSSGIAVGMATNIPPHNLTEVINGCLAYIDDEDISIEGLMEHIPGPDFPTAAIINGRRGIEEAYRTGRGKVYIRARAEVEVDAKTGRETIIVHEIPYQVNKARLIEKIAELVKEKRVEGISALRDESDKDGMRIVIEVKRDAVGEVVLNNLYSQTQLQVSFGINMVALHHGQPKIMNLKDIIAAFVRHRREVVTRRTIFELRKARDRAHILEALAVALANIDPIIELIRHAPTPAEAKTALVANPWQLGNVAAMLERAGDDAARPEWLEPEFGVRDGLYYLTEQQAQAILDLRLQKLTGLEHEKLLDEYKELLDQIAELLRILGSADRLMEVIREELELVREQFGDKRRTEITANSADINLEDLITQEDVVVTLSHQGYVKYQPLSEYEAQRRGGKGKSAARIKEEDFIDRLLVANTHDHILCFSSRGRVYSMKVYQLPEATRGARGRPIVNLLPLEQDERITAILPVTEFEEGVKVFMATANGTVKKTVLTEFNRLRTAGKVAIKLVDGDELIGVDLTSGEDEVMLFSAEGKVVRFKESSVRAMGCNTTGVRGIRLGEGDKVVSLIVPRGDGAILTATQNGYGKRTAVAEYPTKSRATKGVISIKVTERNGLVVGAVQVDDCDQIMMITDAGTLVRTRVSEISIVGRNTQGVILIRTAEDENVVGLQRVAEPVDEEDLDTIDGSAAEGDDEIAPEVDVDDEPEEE

Row | SMILES | IC50 [µM] | IC50 (5 nM enzyme, 0.3 mM ATP, relaxed plasmid, fluorescence anisotropy readout, read-out: E. coli DNA gyrase supercoiling IC50) [µM]
1 | C/C(=N\NC(=O)Nc1ccccc1)c1cc2c(c(F)c1F)N1C[C@@H](C)O[C@@H](C)[C@@H]1C1(C2)C(=O)NC(=O)NC1=O (relative stereo) [Example 51, (2E)-2-{1-[(2R,4S,4aS)-rel-9,10-Difluoro-2,4-dimethyl-2′,4′,6′-trioxo-1,1′,2,3′,4,4′,4a,6′-octahydro-2′H,6H-spiro[1,4-oxazino[4,3-a]quinoline-5,5′-pyrimidin]-8-yl]ethylidene}-N-phenylhydrazinecarboxamide] | 5.5 | 
2 | CC(=O)N/N=C(\C)c1cc2c(c(F)c1F)N1C[C@@H](C)O[C@@H](C)[C@@H]1C1(C2)C(=O)NC(=O)NC1=O (relative stereo) [Example 48, N′-{(1E)-1-[(2R,4S,4aS)-rel-9,10-Difluoro-2,4-dimethyl-2′,4′,6′-trioxo-1,1′,2,3′,4,4′,4a,6′-octahydro-2′H,6H-spiro[1,4-oxazino[4,3-a]quinoline-5,5′-pyrimidin]-8-yl]ethylidene}acetohydrazide] | 1.3 | 
3 | COC(=O)N/N=C(\C)c1cc2c(c(F)c1F)N1C[C@@H](C)O[C@@H](C)[C@@H]1C1(C2)C(=O)NC(=O)NC1=O (racemic) [Example 49, Methyl (2E)-2-{1-[(2R,4S,4aS)-rel-9,10-difluoro-2,4-dimethyl-2′,4′6′-trioxo-1,1′,2,3′,4,4′,4a,6′-octahydro-2′H,6H-spiro[1,4-oxazino[4,3-a]quinoline-5,5′-pyrimidin]-8-yl]ethylidene}hydrazinecarboxylate] | 0.45 | 
4 | C[C@@H]1CN2c3c(cc(C#Cc4nccn4C)c(F)c3F)CC3(C(=O)NC(=O)NC3=O)[C@H]2[C@H](C)O1 (racemic) [Example 12, (2R,4S,4aS)-rel-9,10-Difluoro-2,4-dimethyl-8-[(1-methyl-1H-imidazol-2-yl)ethynyl]-1,2,4,4a-tetrahydro-2′H,6H-spiro[1,4-oxazino≡[4,3-a]quinoline-5,5′-pyrimidine]-2′,4′,6′(1′H,3H)-trione] | 0.69 | 
5 | C[C@H]1CN2c3c(cc(C#Cc4cnccn4)c(F)c3F)CC3(C(=O)NC(=O)NC3=O)[C@@H]2[C@@H](C)O1 (relative stereo) [Example 20, (2S,4R,4aR)-rel-9,10-Difluoro-2,4-dimethyl-8-(pyrazin-2-ylethynyl)-1,2,4,4a-tetrahydro-2′H,6H-spiro[1,4-oxazino[4,3-a]quinoline-5,5′-pyrimidine]-2′,4′,6′(1′H,3′H)-trione] | 0.49 | 
6 | C[C@@H]1CN2c3c(cc(C#Cc4cccnc4)c(F)c3F)CC3(C(=O)NC(=O)NC3=O)[C@H]2[C@H](C)O1 (relative stereo) [Example 18, (2R,4S,4aS)-rel-9,10-Difluoro-2,4-dimethyl-8-(pyridin-3-ylethynyl)-1,2,4,4a-tetrahydro-2′H,6H-spiro[1,4-oxazino[4,3-a]quinoline-5,5′-pyrimidine]-2′,4′,6′(1′H,3′H)-trione] | 0.5 | 
7 | C[C@@H]1CN2c3c(cc(C(=O)NC4CCOCC4)c(F)c3F)CC3(C(=O)NC(=O)NC3=O)[C@H]2[C@H](C)O1 (relative stereo) [Example 66, (2R,4S,4aS)-rel-9,10-Difluoro-2,4-dimethyl-2′,4′,6′-trioxo-N-(tetrahydro-2H-pyran-4-yl)-1,1′,2,3′,4,4′,4a,6′-octahydro-2′H,6H-spiro[1,4-oxazino[4,3-a]quinoline-5,5′-pyrimidine]-8-carboxamide] | 5.86 | 
8 | C/C(=N\Nc1ccccn1)c1cc2c(c(F)c1F)N1C[C@@H](C)O[C@@H](C)[C@@H]1C1(C2)C(=O)NC(=O)NC1=O (relative stereo) [Example 57, (2R,4S,4aS)-rel-9,10-Difluoro-2,4-dimethyl-8-{(1E)-1-[2-(pyridin-2-yl)hydrazinylidene]ethyl}-1,2,4,4a-tetrahydro-2′H,6H-spiro[1,4-oxazino[4,3-a]quinoline-5,5′-pyrimidine]-2′,4′,6′(1′H,3′H)-trione] | 0.85 | 
9 | C[C@@H]1CN2c3c(cc(C(=O)NC4CCCOC4)c(F)c3F)CC3(C(=O)NC(=O)NC3=O)[C@H]2[C@H](C)O1 (relative stereo) [Example 65, (2R,4S,4aS)-rel-9,10-Difluoro-2,4-dimethyl-2′,4′,6′-trioxo-N-(tetrahydro-2H-pyran-3-yl)-1,1′,2,3′,4,4′,4a,6′-octahydro-2′H,6H-spiro[1,4-oxazino[4,3-a]quinoline-5,5′-pyrimidine]-8-carboxamide] | > 10 | 
10 | C[C@@H]1CN2c3c(cc(C#Cc4cnccn4)c(F)c3F)CC3(C(=O)NC(=O)NC3=O)[C@H]2[C@H](C)O1 [Example 79, (2R,4S,4aS)-9,10-Difluoro-2,4-dimethyl-8-(pyrazin-2-ylethynyl)-2,4,4a,6-tetrahydro-1H,1′H-spiro[[1,4]oxazino[4,3-a]quinoline-5,5′-pyrimidine]-2′,4′,6′(3′H)-trione] | 0.4 | 
11 | C[C@@H]1CN2c3c(F)cc(C#Cc4cncs4)cc3CC3(C(=O)NC(=O)NC3=O)[C@H]2[C@H](C)O1 (relative stereo) [Example 39, (2R,4S,4aS)-rel-10-Fluoro-2,4-dimethyl-8-(1,3-thiazol-5-ylethynyl)-1,2,4,4a-tetrahydro-2′H,6′-spiro[1,4-oxazino[4,3-a]quinoline-5,5′-pyrimidine]-2′,4′,6′(1′H,3′H)-trione] |  | 0.87
12 | C[C@@H]1CN2c3c(F)cc(C#Cc4nccs4)cc3CC3(C(=O)NC(=O)NC3=O)[C@H]2[C@H](C)O1 (relative stereo) [Example 38, (2R,4S,4aS)-rel-10-Fluoro-2,4-dimethyl-8-(1,3-thiazol-2-ylethynyl)-1,2,4,4a-tetrahydro-2′H,6H-spiro[1,4-oxazino[4,3-a]quinoline-5,5′-pyrimidine]-2′,4′,6′(1′H,3′H)-trione] | 0.76 | 
13 | C[C@@H]1CN2c3ccc(NC(=O)Nc4ccccc4)cc3CC3(C(=O)NC(=O)NC3=O)[C@H]2[C@H](C)O1 (relative stereo) [Example 73, 1-[(2R,4S,4aS)-rel-2,4-Dimethyl-2′,4′,6′-trioxo-1,1′,2,3′,4,4′,4a,6′-octahydro-2′H,6H-spiro[1,4-oxazino[4,3-a]quinoline-5,5′-pyrimidin]-8-yl]-3-phenylurea] | 5.02 | 
14 | C/C(=N\NC(=O)CC#N)c1cc2c(c(F)c1F)N1C[C@@H](C)O[C@@H](C)[C@@H]1C1(C2)C(=O)NC(=O)NC1=O (relative stereo) [Example 53, 2-Cyano-N′-{(1E)-1-[(2R,4S,4aS)-rel-9,10-difluoro-2,4-dimethyl-2′,4′,6′-trioxo-1,1′,2,3′,4,4′,4a,6′-octahydro-2′H,6H-spiro[1,4-oxazino[4,3-a]quinoline-5,5′-pyrimidin]-8-yl]ethylidene}acetohydrazide] | 1.64 | 
15 | C[C@@H]1CN2c3c(cc(C(=O)NC4CCN(C(=O)OC(C)(C)C)CC4)c(F)c3F)CC3(C(=O)NC(=O)NC3=O)[C@H]2[C@H](C)O1 (relative stereo) [Example 67, tert-Butyl 4-({[(2R,4S,4aS)-rel-9,10-difluoro-2,4-dimethyl-2′,4′,6′-trioxo-1,1′,2,3′,4,4′,4a,6′-octahydro-2′H,6H-spiro[1,4-oxazino[4,3-a]quinoline-5,5′-pyrimidin]-8-yl]carbonyl}amino)piperidine-1-carboxylate] | 12 | 
16 | C[C@H]1CN2c3c(cc(C#Cc4cccs4)c(F)c3F)CC3(C(=O)NC(=O)NC3=O)[C@@H]2[C@@H](C)O1 (relative stereo) [Example 10, (2S,4R,4aR)-rel-9,10-Difluoro-2,4-dimethyl-8-(thiophen-2-ylethynyl)-1,2,4,4a-tetrahydro-2′H,6H-spiro[1,4-oxazino[4,3-a]quinoline-5,5′-pyrimidine]-2′,4′,6′(1′H,3′H)-trione] | 1.45 | 
17 | C/C(=N\Nc1cnccn1)c1cc2c(c(F)c1F)N1C[C@@H](C)O[C@@H](C)[C@@H]1C1(C2)C(=O)NC(=O)NC1=O (relative stereo) [Example 60, (2R,4S,4aS)-rel-9,10-Difluoro-2,4-dimethyl-8-{(1E)-1-[2-(pyrazin-2-yl)hydrazinylidene]ethyl}-1,2,4,4a-tetrahydro-2′H,6H-spiro[1,4-oxazino[4,3-a]quinoline-5,5′-pyrimidine]-2′,4′,6′(1′H,3′H)-trione] | 0.26 | 
18 | Cc1nnc(C#Cc2cc3c(cc2F)N2C[C@@H](C)O[C@@H](C)[C@@H]2C2(C3)C(=O)NC(=O)NC2=O)s1 (relative stereo) [Example 25, (2R,4S,4aS)-rel-9-Fluoro-2,4-dimethyl-8-[(5-methyl-1,3,4-thiadiazol-2-yl)ethynyl]-1,2,4,4a-tetrahydro-2′H,6H-spiro[1,4-oxazino[4,3-a]quinoline-5,5′-pyrimidine]-2′,4′,6′(1′H,3′H)-trione] | 0.87 | 
19 | C[C@@H]1CN2c3c(F)cc(C#Cc4cnccn4)cc3CC3(C(=O)NC(=O)NC3=O)[C@H]2[C@H](C)O1 (relative stereo) [Example 43, (2R,4S,4aS)-rel-10-Fluoro-2,4-dimethyl-8-(pyrazin-2-ylethynyl)-1,2,4,4a-tetrahydro-2′H,6H-spiro[1,4-oxazino[4,3-a]quinoline-5,5′-pyrimidine]-2′,4′,6′(1′H,3′H)-trione] | 1.47 | 
20 | C[C@@H]1CN2c3cc(F)c(C#Cc4ncccn4)cc3CC3(C(=O)NC(=O)NC3=O)[C@H]2[C@H](C)O1 (relative stereo) [Example 33, (2R,4S,4aS)-rel-9-Fluoro-2,4-dimethyl-8-(pyrimidin-2-ylethynyl)-1,2,4,4a-tetrahydro-2′H,6H-spiro[1,4-oxazino[4,3-a]quinoline-5,5′-pyrimidine]-2′,4′,6′(1′H,3′H)-trione] | 1.18 | 
21 | C[C@@H]1CN2c3c(cc(C(=O)NC4CCOC4)c(F)c3F)CC3(C(=O)NC(=O)NC3=O)[C@H]2[C@H](C)O1 (relative stereo) [Example 64, (2R,4S,4aS)-rel-9,10-Difluoro-2,4-dimethyl-2′,4′,6′-trioxo-N-(tetrahydrofuran-3-yl)-1,1′,2,3′,4,4′,4a,6′-octahydro-2′H,6H-spiro[1,4-oxazino[4,3-a]quinoline-5,5′-pyrimidine]-8-carboxamide] | 5.05 | 
